Where “and” joins values, the source holds several entries; their conditions need not be identical. Equal values may be shown once. Starred links: 1 amine or outer side, 2 acyl side, 3 side chain; linkers in the order of their positions; H or OH if unused. Positions of bridges follow the written chain, without caps; N, C: chain ends. Non-standard residues stand in square brackets, D forms with d. Residues, ends and D or L forms follow the SMILES beside them. TATA = O=C(CC[*:1])N1CN(C(=O)CC[*:2])CN(C(=O)CC[*:3])C1; Phe(4-F) = N[C@@H](Cc1ccc(F)cc1)C(=O)O; β3hR = N=C(N)NCCC[C@H](N)CC(=O)O

Results on four compounds are retold here after paper PMC7403315, “Cyclic peptide FXII inhibitor provides safe anticoagulation in a thrombosis model and in artificial lungs” (Nature Communications, 2020).

Assay [1] concerns the target T1, human β-FXIIa (Homo sapiens, UniProt P00748).
T1 construct: human β-FXIIa (Molecular Innovations cat #); purchased Molecular Innovations HFXIIAB; host or cells: human blood
As to the kind of experiment: FXIIa protease inhibition assay with fluorogenic substrate Boc-Gln-Gly-Arg-AMC. Particulars: for Ki: purified peptide without coumarin label, read-out: Ki human FXIIa. The class given is biochemical. Here is the method: (§1) In order to test the inhibitory activity of peptides without prior purification, we developed the following method. […] After solid-phase peptide synthesis, cleavage, and ether precipitation, the peptides were chemically cyclized and their Ki values were determined in a FXIIa activity assay using a fluorogenic substrate.
(§2) Protease inhibition assays
(§3) The inhibitory activity of peptides was determined by measuring the residual protease activity with a fluorogenic substrate. The assay was performed in buffer containing 10 mM Tris-Cl, pH […]
(§4) 1% (v/v) DMSO in a volume of 150 µl. FXIIa activity was measured with the fluorogenic substrate Boc-Gln-Gly-Arg-AMC (Bachem) at a final concentration of 50 µM. Mouse α-FXIIa (Molecular Innovations cat # MFXIIA) and human β-FXIIa (Molecular Innovations cat # HFXIIAB) were used at final concentrations of 0.4 nM. The reaction was pipetted as follows: 50 µl of bicyclic peptide in assay buffer were added to 50 µl of FXIIa in assay buffer and incubated for 10 minutes at 25°C before 50 µl of 150 µM fluorogenic substrate in assay buffer were added to measure the residual protease activity with an Infinite M200Pro fluorescence plate reader (excitation at 368 nm, emission at 467 nm; Tecan) for a period of 30 minutes with a read every minute at 25°C. The Tecan software i-control (version 1.1) was used for data analysis. Stock solutions of 1 mM bicyclic peptide were prepared by either dissolving the unpurified cyclization reaction with water or by dissolving purified and lyophilized peptide in water. The bicyclic peptides were serially diluted two-fold using assay buffer. Sigmoidal curves were fitted to the data using the following dose response equation (1), wherein x = peptide concentration, y = % protease activity, and p = Hill slope. IC50 values were derived from the fitted curve.
(§5) The inhibition constants (Ki) were calculated according to the equation of Cheng and Prusoff, Ki = IC50/(1+([S]0/Km), wherein IC50 is the functional strength of the inhibitor, [S]0 is the total substrate concentration, and Km is the Michaelis-Menten constant. […]
(§6) the substrate Boc-Gln-Gly-Arg-AMC. […]

Assay [2] deals with T2, Mouse α-FXIIa (Mus musculus, UniProt Q80YC5).
T2 construct: Mouse α-FXIIa; purchased Molecular Innovations MFXIIA
T2 sequence (Q80YC5 355-597 limits assumed): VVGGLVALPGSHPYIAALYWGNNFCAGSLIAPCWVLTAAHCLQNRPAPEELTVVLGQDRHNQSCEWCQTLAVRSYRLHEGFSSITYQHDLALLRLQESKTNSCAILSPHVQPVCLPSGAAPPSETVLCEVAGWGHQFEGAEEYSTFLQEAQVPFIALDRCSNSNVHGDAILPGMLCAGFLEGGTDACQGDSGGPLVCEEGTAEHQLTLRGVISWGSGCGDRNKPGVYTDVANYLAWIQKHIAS
T2 sequence (Q80YC5 20-354 limits assumed): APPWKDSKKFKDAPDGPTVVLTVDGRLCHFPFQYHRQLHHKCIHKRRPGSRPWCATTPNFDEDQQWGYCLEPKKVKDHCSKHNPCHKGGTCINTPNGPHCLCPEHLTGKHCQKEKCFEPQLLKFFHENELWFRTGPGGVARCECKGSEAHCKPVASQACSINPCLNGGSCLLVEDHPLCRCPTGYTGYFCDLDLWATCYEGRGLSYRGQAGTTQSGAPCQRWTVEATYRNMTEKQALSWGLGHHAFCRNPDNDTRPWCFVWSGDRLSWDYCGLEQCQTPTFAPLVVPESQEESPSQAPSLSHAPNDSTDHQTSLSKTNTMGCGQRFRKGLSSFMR
The assay is described as above. The class given is biochemical. To be noted: purified peptide without coumarin label; read-out: Ki mouse FXIIa. Here is the method: as §1, §2, §3, §4, §5, §6

T1 sequence (P00748 373-615 limits assumed, other chains not shown): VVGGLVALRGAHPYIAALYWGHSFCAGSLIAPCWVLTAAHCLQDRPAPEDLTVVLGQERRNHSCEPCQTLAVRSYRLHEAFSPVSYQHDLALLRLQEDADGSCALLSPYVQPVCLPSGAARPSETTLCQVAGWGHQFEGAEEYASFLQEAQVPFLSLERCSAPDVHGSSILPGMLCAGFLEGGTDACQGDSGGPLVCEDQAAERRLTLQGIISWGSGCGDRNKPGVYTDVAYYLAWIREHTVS

A word on the Ki: it is the dissociation constant of the complex between target and ligand, obtained from inhibition or displacement. As to `CC(C)C[C@@H]1NC(=O)[C@H](CCC(N)=O)NC(=O)[C@H](Cc2c[nH]cn2)NC(=O)[C@@H]2CSCCC(=O)N3CN(CN(C3)C(=O)CCSC[C@H](NC(=O)[C@@H](N)CCCNC(=N)N)C(=O)N[C@@H](Cc3ccccc3)C(=O)N[C@@H](CCCNC(=N)N)C(=O)N[C@@H](CC(C)C)C(=O)N3CCC[C@H]3C(=O)N2)C(=O)CCSC[C@@H](C(=O)N[C@@H](CCCNC(=N)N)C(N)=O)NC(=O)[C@H](CCCNC(=N)N)NC1=O` [FXII851] (HELM PEPTIDE1{R.C.F.R.L.P.C.H.Q.L.R.C.R.[am]}|CHEM1{[O=C(CC[*:1])N1CN(C(=O)CC[*:2])CN(C(=O)CC[*:3])C1]}$PEPTIDE1,CHEM1,2:R3-1:R1|PEPTIDE1,CHEM1,7:R3-1:R2|PEPTIDE1,CHEM1,12:R3-1:R3$$$V2.0), the “Residual activity of human FXIIa” value in assay [1] (inhibitor 0.390625 nM, 0.000390625 µM) came to 96.2983%; in assay [1] (inhibitor 0.78125 nM, 0.00078125 µM), 91.5155%; in assay [1] (inhibitor 1.5625 nM, 0.0015625 µM) it was 83.5319%; in assay [1] (inhibitor 3.125 nM, 0.003125 µM), 70.2169%; in assay [1] (inhibitor 6.25 nM, 0.00625 µM), 54.9417%; in assay [1] (inhibitor 12.5 nM, 0.0125 µM), 37.7877%. Besides, the “Residual activity of human FXIIa” value was 23.2045% in assay [1] (inhibitor 25 nM, […]); 12.5321% in assay [1] (inhibitor 50 nM, 0.05 µM); 6.25% in assay [1] (inhibitor 100 nM, 0.1 µM); 1.167% and 2.638% in assay [1] (inhibitor 200 nM, 0.2 µM); 1.099% in assay [1] (inhibitor 400 nM, 0.4 µM). Moreover, the remaining activity at 0.000390625 µM in assay [1] (inhibitor 0.390625 nM, read-out: Residual activity of human FXIIa) came to 93.8%. Also, the remaining activity at 0.00078125 µM in assay [1] (inhibitor 0.78125 nM, read-out: Residual activity of human FXIIa) is 90.5%. Also, the remaining activity at 0.0015625 µM in assay [1] (inhibitor 1.5625 nM, read-out: Residual activity of human FXIIa) was 84.1%. Besides, in assay [1] (inhibitor 3.125 nM, read-out: Residual activity of human FXIIa), the remaining activity at 0.003125 µM amounted to 72.3%. In addition, the remaining activity at 0.00625 µM in assay [1] (inhibitor 6.25 nM, read-out: Residual activity of human FXIIa) was found to be 56.8%. Further, in assay [1] (inhibitor 12.5 nM, read-out: Residual activity of human FXIIa), the remaining activity at 0.0125 µM amounted to 38.2%. The remaining activity at […] in assay [1] (inhibitor 25 nM, read-out: Residual activity of human FXIIa) came out at 25%. Further, in assay [1] (inhibitor 50 nM, read-out: Residual activity of human FXIIa), the remaining activity at 0.05 µM was 14.1%. Further, the remaining activity at 0.1 µM in assay [1] (inhibitor 100 nM, read-out: Residual activity of human FXIIa) stood at 6.97%. The remaining activity at 0.4 µM in assay [1] (inhibitor 400 nM, read-out: Residual activity of human FXIIa) was 1.94%. The Ki in assay [1] was 6.5 nM; in assay [2], 36 nM.
With `CC(C)C[C@@H]1NC(=O)[C@H](CCC(N)=O)NC(=O)[C@H](CCCNC(=N)N)NC(=O)[C@@H]2CSCCC(=O)N3CN(CN(C3)C(=O)CCSC[C@H](NC(=O)[C@@H](CO)NC(=O)[C@H](N)CCCNC(=N)N)C(=O)N[C@@H](Cc3ccc(F)cc3)C(=O)N[C@@H](CCCNC(=N)N)C(=O)N[C@@H](CC(C)C)C(=O)N3CCC[C@H]3C(=O)N2)C(=O)CCSC[C@@H](C(=O)N[C@@H](CCCNC(=N)N)C(N)=O)NC(=O)C[C@H](CCCNC(=N)N)NC1=O` [Arg8His reverted] (H-[dR][dS]C[Phe(4-F)]RLPCRQL[β3hR]CR-NH2; linker 3-8-13 via TATA), the Ki in assay [1] amounted to 0.31 ± 0.02 nM; in assay [2] it was 0.91 ± 0.04 nM.
The like results for `CC(C)C[C@@H]1NC(=O)[C@H](CCC(N)=O)NC(=O)[C@H](Cc2c[nH]cn2)NC(=O)[C@@H]2CSCCC(=O)N3CN(CN(C3)C(=O)CCSC[C@H](NC(=O)[C@@H](CO)NC(=O)[C@H](N)CCCNC(=N)N)C(=O)N[C@@H](Cc3ccccc3)C(=O)N[C@@H](CCCNC(=N)N)C(=O)N[C@@H](CC(C)C)C(=O)N3CCC[C@H]3C(=O)N2)C(=O)CCSC[C@@H](C(=O)N[C@@H](CCCNC(=N)N)C(N)=O)NC(=O)C[C@H](CCCNC(=N)N)NC1=O` [Phe3Phe4F reverted] (HELM PEPTIDE1{[dR].[dS].C.F.R.L.P.C.H.Q.L.[N=C(N)NCCC[C@@H](CC(=O)[*:2])N[*:1]].C.R.[am]}|CHEM1{[O=C(CC[*:1])N1CN(C(=O)CC[*:2])CN(C(=O)CC[*:3])C1]}$PEPTIDE1,CHEM1,3:R3-1:R1|PEPTIDE1,CHEM1,8:R3-1:R2|PEPTIDE1,CHEM1,13:R3-1:R3$$$V2.0) were, in that order, 0.7 ± 0.06 nM and 1.9 ± 0.5 nM.
The matching figures for `CC(C)C[C@@H]1NC(=O)[C@H](CCC(N)=O)NC(=O)[C@H](Cc2c[nH]cn2)NC(=O)[C@@H]2CSCCC(=O)N3CN(CN(C3)C(=O)CCSC[C@H](NC(=O)[C@@H](CO)NC(=O)[C@H](N)CCCNC(=N)N)C(=O)N[C@@H](Cc3ccc(F)cc3)C(=O)N[C@@H](CCCNC(=N)N)C(=O)N[C@@H](CC(C)C)C(=O)N3CCC[C@H]3C(=O)N2)C(=O)CCSC[C@@H](C(=O)N[C@@H](CCCNC(=N)N)C(N)=O)NC(=O)[C@H](CCCNC(=N)N)NC1=O` [Arg11βhArg reverted] (HELM PEPTIDE1{[dR].[dS].C.[O=C([C@H](Cc1ccc(F)cc1)N[*:1])[*:2]].R.L.P.C.H.Q.L.R.C.R.[am]}|CHEM1{[O=C(CC[*:1])N1CN(C(=O)CC[*:2])CN(C(=O)CC[*:3])C1]}$PEPTIDE1,CHEM1,3:R3-1:R1|PEPTIDE1,CHEM1,8:R3-1:R2|PEPTIDE1,CHEM1,13:R3-1:R3$$$V2.0): 0.51 ± 0.1 nM and 0.9 ± 0.4 nM.
